Key:
[1] = Metabolic stability evaluation, rat liver microsomes; format: in vitro ADME; conditions: SD, pH 7.4, 1 μM compound, 0.5 mg/mL protein, 37° C.; for microsomal CLint at 1 μM: read-out: rat liver microsome CLint; for half-life at 1 μM: read-out: rat liver microsome t1/2
Method: (§1) Microsomal experiments: human liver microsomes: 0.5 mg/mL, Xenotech; rat liver microsomes: 0.5 mg/mL, Xenotech; coenzyme (NADPH/NADH): 1 mM, Sigma Life Science; magnesium chloride: 5 mM, 100 mM phosphate buffer agent (pH 7.4).
(§2) Preparation of the stock solution: A certain amount of the powder of the example compounds was accurately weighed and dissolved to 5 mM with DMSO.
(§3) Preparation of phosphate buffer (100 mM, pH 7.4): 150 mL of pre-prepared 0.5 M potassium dihydrogen phosphate solution was mixed with 700 mL of pre-prepared 0.5 M dipotassium hydrogen phosphate solution, and the pH of the mixture was adjusted with 0.5 M dipotassium hydrogen phosphate solution to 7.4. It was diluted 5 times with ultrapure water before use, and magnesium chloride was added to obtain a phosphate buffer (100 mM) containing 100 mM potassium phosphate, 3.3 mM magnesium chloride, and a pH of 7.4.
(§4) A solution of NADPH regeneration system (containing 6.5 mM NADP, 16.5 mM G-6-P, 3 U/mL G-6-P D, 3.3 mM magnesium chloride) was prepared and placed on wet ice before use.
(§5) Preparation of stop solution: acetonitrile solution containing 50 ng/mL propranolol hydrochloride and 200 ng/mL tolbutamide (internal standard). 25057.5 μL of phosphate buffer (pH 7.4) was taken into a 50 mL centrifuge tube, 812.5 μL of human liver microsomes was added, and mixed uniformly to obtain a liver microsome dilution with a protein concentration of 0.625 mg/mL. 25057.5 μL of phosphate buffer (pH 7.4) was taken into a 50 mL centrifuge tube, and 812.5 μL of SD rat liver microsomes was added, and mixed uniformly to obtain a liver microsome dilution with a protein concentration of 0.625 mg/mL.
(§6) Incubation of the sample: The stock solutions of the corresponding compounds were diluted to 0.25 mM as working solutions with an aqueous solution containing 70% acetonitrile before use. 398 μL of human liver microsomes or rat liver microsome dilutions were added to 96-well incubation plates (N=2), and 2 μL of 0.25 mM working solutions were added and mixed uniformly, respectively.
(§7) Determination of metabolic stability: 300 μL of pre-cooled stop solution was added to each well of a 96-well deep well plate, which was placed on ice as a stop plate. The 96-well incubation plate and the NADPH regeneration system were placed in a 37° C. water bath, shaken at 100 rpm, and pre-incubated for 5 min. 80 μL of the incubation solution was removed from each well of the incubation plate, added to the stop plate, and mixed uniformly, and 20 μL of the NADPH regeneration system solution was supplemented as a sample at 0 min. Then, 80 μL of the NADPH regeneration system solution was added to each well of the incubation plate to start the reaction and the timing was started. […] 100 μL of the reaction solution was removed at 10, 30, and 90 min of the reaction, respectively, and added to the stop plate, and the reaction was terminated by vortexing for 3 min. The stop plate was centrifuged at 5000×g for 10 min at 4° C. 100 μL of the supernatant was removed into a 96-well plate to which 100 μL of distilled water was previously added, mixed uniformly, and sample analysis was performed by LC-MS/MS.
(§8) Data analysis: The peak areas of the corresponding compounds and the internal standard were detected by LC-MS/MS system, and the ratios of the peak areas of the compounds to the internal standard were calculated.

[2] = Metabolic stability evaluation, human liver microsomes; format: in vitro ADME; conditions: pH 7.4, 1 μM compound, 0.5 mg/mL protein, 37° C.; for microsomal CLint at 1 μM: read-out: human liver microsome CLint; for half-life at 1 μM: read-out: human liver microsome t1/2
Method: as §1, §2, §3, §4, §5, §6, §7, §8

| microsomal CLint at 1 μM [1] [µL/min/mg] | half-life at 1 μM [1] [h] | microsomal CLint at 1 μM [2] [µL/min/mg] | half-life at 1 μM [2] [h] | Compound |
| --- | --- | --- | --- | --- |
| 16.8 | 1.38 | 19.1 | 1.21 | [2H]C1([2H])C[C@H](O)C([2H])([2H])N1C(=O)Nc1cnn2ccc(N3CCC([2H])([2H])C3([2H])c3cc(F)ccc3F)nc12 (stereo in doubt) [Compound L-3, (S)—N-(5-((R)-2-(2,5-difluorophenyl)pyrrolidin-1-yl-2,3,3-d3)-pyrazolo[1,5-a]pyrimidin-3-yl)-3-hydroxypyrrolidine-2,2,5,5-d4-1-carboxamide] |
| 19.2 | 1.2 | 18.2 | 1.27 | [2H]C1([2H])C[C@H](O)C([2H])([2H])N1C(=O)Nc1cnn2ccc(N3CCC[C@@H]3c3cc(F)ccc3F)nc12 [Compound L-1, (S)—N-(5-((R)-2-(2,5-difluorophenyl)pyrrolidin-1-yl)-pyrazolo[1,5-a]pyrimidine-3-yl)-3-hydroxypyrrolidine-2,2,5,5-d4-1-carboxamide] |

Continued, molecule first:

| Compound | microsomal CLint at 1 μM [1] [µL/min/mg] | half-life at 1 μM [1] [h] | microsomal CLint at 1 μM [2] [µL/min/mg] | half-life at 1 μM [2] [h] |
| --- | --- | --- | --- | --- |
| O=C(Nc1cnn2ccc(N3CCC[C@@H]3c3cc(F)ccc3F)nc12)N1CC[C@H](O)C1 [LOXO-101, (S)—N-(5-((R)-2-(2,5-difluorophenyl)-pyrrolidin-1-yl)pyrazolo[1,5-a]pyrimidin-3-yl)-3-hydroxypyrrolidine-1-carboxamide, reference compound] | 31.7 | 1.06 | 21.3 | 1.08 |
| [2H]C1([2H])CC([2H])([2H])[C@@]([2H])(c2cc(F)ccc2F)N1c1ccn2ncc(NC(=O)N3CC[C@H](O)C3)c2n1 [Compound L-7, (S)—N-(5-((R)-2-(2,5-difluorophenyl)pyrrolidin-1-yl-2,3,3,5,5-d2)pyrazolo[1,5-a]pyrimidin-3-yl)-3-hydroxypyrrolidine-1-carboxamide] | 15.8 | 1.46 | 20.6 | 1.12 |
| [2H]C1([2H])C[C@H](c2cc(F)ccc2F)N(c2ccn3ncc(NC(=O)N4CC[C@H](O)C4)c3n2)C1 [Compound L-4, (S)—N-(5-((R)-2-(2,5-difluorophenyl)pyrrolidin-1-yl-4,4-d2)pyrazolo[1,5-a]pyrimidin-3-yl)-3-hydroxypyrrolidine-1-carboxamide] | – | – | 21 | 1.1 |

Source: patent US11453672B2, “Substituted pyrazolo[1,5-a]pyrimidines as tropomyosin receptor kinase inhibitors” (SHENZHEN TARGETRX, INC., priority 2017, dated 2022)
